Tested on: human conjunctival tissue mast cells
Experiment: Inhibition of anti-human IgE induced histamine release from human conjunctival tissue mast cells (HCTMC), histamine by RIA
Format: cell-based
Conditions: Mast cell, bracketed value, equals the mean of the four single determinations in the same cell, read-out: IC50 (nM), value in square brackets
Experimental: Methods detailing preparation of monodispersed HCTMC and mediator release studies with these cells have been described (U.S. Pat. No. 5,360,720 and Miller et al, Ocular Immunology and Inflammation, 4(1):39-49 (1996)). Briefly, human conjunctival tissue mast cells were isolated from post-mortem tissue donors obtained within 8 hours of death by various eye banks and transported in Dexsol® corneal preservation medium, or equivalent. Tissues were enzymatically digested by repeated exposure (30 min. at 37° C.) to collagenase and hyaluronidase (2× with 200 U each/gram tissue, then 2-4× with 2000 U each/gram tissue) in Tyrode's buffer containing 0.1% gelatin. (Tyrode's buffer (in mM): 137 NaCl, 2.7 KCl, 0.35 NaH2PO4, 1.8 CaCl2, 0.98 MgCl2, 11.9 NaHCO3, and 5.5 glucose). […]
Cells were harvested from the culture plate and counted for viability (trypan blue exclusion) and mast cell number (toluidine blue O). […] Supernatants were stored at −20° C. until analyzed for histamine content by RIA (Beckman Coulter, Chicago, Ill.). […]
Inhibition of histamine release was determined by direct comparison of with anti-IgE challenged mast cells using Dunnett's t-test (Dunnett, “A multiple comparison procedure for comparing treatments with a control”, J. Amer. Stat. Assoc. (1955), 50:1096-1121).

IC50: 194 nM
Structure (SMILES): C=CCNC(=O)Nc1ccccc1SSc1ccccc1NC(=O)NCC=C [Compound 1]
